From ChEMBL document CHEMBL3991601, “The target landscape of clinical kinase drugs” (Science, 2017)
The source made the active and inactive calls. For most assays here, no stated cut-off is given here; in the data, actives have a measured Kd and inactives only a lower limit.

Experiments:
TGF-beta receptor type-1 = target: T1, TGF-beta receptor type-1 (Homo sapiens, UniProt P36897)
T1 sequence (P36897 whole entry): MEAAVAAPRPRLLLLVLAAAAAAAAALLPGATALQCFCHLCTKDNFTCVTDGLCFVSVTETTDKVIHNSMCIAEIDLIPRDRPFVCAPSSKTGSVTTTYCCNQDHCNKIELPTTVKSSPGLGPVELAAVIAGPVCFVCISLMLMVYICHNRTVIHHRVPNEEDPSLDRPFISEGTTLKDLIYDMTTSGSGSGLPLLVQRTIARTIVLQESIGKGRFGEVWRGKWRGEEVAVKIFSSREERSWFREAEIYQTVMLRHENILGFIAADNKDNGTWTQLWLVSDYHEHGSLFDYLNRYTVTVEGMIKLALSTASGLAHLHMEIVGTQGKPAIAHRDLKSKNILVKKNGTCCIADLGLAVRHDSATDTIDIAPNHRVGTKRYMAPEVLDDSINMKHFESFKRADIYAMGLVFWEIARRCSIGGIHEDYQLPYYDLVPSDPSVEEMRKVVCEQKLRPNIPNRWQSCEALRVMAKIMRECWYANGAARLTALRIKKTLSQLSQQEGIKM

[1] = target: Casein kinase I isoform alpha (Homo sapiens, UniProt P48729)
[2] = target: T2, cGMP-dependent protein kinase 1 (Homo sapiens, UniProt Q13976)
T2 sequence (Q13976 whole entry): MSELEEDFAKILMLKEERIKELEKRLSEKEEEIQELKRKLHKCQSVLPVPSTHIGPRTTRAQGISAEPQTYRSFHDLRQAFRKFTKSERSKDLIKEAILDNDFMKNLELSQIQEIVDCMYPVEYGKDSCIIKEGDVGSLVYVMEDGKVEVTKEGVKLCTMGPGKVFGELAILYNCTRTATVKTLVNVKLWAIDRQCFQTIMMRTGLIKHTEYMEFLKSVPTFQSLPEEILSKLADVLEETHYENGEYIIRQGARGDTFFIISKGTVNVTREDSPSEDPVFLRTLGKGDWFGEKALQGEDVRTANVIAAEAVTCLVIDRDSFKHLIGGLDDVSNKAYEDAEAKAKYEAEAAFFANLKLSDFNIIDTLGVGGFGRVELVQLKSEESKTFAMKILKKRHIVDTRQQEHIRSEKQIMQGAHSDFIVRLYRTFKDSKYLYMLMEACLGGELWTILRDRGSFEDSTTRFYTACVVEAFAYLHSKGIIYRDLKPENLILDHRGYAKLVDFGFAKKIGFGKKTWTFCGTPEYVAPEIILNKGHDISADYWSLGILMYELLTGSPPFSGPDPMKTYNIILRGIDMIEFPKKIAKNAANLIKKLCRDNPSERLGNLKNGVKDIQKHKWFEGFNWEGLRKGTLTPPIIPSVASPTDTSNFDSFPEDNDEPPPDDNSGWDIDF

[3] = target: T3, Non-receptor tyrosine-protein kinase TNK1 (Homo sapiens, UniProt Q13470)
T3 sequence (Q13470 whole entry): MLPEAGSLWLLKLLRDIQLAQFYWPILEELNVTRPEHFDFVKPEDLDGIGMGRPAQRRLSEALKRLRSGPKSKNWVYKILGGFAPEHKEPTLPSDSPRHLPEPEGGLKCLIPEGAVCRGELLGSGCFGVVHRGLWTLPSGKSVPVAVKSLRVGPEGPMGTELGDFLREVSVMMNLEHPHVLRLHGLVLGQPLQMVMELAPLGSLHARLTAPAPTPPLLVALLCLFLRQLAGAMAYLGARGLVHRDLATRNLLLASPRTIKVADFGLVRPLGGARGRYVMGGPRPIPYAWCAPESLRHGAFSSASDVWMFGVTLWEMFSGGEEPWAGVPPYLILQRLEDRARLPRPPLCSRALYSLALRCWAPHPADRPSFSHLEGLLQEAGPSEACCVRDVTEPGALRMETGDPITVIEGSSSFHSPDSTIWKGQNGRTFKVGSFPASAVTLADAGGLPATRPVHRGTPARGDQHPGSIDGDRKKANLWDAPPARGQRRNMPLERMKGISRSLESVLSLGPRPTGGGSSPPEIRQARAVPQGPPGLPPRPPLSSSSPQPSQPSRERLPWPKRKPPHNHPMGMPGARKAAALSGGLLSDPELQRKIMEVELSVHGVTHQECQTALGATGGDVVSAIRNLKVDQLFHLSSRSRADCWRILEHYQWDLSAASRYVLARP

[4] = target: 26S proteasome regulatory subunit 6B (Homo sapiens, UniProt P43686)
[5] = target: Mitogen-activated protein kinase kinase kinase 20 (Homo sapiens, UniProt Q9NYL2)
[6] = target: T4, DNA replication licensing factor MCM4 (Homo sapiens, UniProt P33991)
T4 sequence (P33991 whole entry): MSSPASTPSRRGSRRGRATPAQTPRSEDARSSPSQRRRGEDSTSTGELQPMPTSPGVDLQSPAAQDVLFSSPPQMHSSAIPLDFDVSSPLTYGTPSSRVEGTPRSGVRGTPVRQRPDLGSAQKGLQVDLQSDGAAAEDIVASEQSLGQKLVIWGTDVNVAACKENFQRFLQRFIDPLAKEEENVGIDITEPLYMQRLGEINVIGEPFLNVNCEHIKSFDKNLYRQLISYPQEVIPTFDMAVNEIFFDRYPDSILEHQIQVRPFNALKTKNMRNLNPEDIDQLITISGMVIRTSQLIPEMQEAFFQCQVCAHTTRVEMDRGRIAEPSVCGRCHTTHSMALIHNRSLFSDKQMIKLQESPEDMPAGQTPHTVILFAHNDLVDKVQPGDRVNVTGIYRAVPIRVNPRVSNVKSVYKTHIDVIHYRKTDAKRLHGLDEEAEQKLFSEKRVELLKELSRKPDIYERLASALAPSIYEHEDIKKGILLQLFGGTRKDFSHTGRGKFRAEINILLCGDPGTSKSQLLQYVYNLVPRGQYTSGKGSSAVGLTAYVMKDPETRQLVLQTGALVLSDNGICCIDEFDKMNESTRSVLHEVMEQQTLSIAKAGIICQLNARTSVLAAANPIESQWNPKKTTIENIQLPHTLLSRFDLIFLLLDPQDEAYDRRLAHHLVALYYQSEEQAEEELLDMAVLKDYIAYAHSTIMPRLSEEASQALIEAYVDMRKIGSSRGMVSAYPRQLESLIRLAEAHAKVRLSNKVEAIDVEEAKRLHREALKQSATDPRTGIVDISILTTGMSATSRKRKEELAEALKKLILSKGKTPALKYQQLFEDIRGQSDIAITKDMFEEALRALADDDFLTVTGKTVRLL

Sequence of Casein kinase I isoform alpha (P48729 whole entry, canonical isoform): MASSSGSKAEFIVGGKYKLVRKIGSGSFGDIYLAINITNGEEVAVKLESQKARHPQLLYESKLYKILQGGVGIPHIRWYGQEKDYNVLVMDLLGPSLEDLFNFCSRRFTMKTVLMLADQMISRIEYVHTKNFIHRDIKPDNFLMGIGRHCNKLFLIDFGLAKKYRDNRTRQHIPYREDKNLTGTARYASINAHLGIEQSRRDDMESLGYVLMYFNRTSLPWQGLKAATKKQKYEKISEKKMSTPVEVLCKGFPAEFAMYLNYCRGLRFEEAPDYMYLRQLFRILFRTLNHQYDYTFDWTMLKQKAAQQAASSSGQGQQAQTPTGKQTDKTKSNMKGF
Sequence of 26S proteasome regulatory subunit 6B (P43686 whole entry): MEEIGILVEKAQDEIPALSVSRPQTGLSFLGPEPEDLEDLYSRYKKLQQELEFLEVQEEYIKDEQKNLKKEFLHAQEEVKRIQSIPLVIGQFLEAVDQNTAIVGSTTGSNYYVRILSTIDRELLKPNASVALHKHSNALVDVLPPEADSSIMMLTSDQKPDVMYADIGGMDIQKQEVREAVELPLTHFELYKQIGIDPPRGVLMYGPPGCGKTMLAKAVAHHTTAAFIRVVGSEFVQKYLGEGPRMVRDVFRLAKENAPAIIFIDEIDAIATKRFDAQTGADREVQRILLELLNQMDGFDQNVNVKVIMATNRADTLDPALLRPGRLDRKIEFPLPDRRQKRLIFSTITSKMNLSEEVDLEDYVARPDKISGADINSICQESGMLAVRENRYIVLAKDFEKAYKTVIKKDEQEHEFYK
Sequence of Mitogen-activated protein kinase kinase kinase 20 (Q9NYL2 whole entry): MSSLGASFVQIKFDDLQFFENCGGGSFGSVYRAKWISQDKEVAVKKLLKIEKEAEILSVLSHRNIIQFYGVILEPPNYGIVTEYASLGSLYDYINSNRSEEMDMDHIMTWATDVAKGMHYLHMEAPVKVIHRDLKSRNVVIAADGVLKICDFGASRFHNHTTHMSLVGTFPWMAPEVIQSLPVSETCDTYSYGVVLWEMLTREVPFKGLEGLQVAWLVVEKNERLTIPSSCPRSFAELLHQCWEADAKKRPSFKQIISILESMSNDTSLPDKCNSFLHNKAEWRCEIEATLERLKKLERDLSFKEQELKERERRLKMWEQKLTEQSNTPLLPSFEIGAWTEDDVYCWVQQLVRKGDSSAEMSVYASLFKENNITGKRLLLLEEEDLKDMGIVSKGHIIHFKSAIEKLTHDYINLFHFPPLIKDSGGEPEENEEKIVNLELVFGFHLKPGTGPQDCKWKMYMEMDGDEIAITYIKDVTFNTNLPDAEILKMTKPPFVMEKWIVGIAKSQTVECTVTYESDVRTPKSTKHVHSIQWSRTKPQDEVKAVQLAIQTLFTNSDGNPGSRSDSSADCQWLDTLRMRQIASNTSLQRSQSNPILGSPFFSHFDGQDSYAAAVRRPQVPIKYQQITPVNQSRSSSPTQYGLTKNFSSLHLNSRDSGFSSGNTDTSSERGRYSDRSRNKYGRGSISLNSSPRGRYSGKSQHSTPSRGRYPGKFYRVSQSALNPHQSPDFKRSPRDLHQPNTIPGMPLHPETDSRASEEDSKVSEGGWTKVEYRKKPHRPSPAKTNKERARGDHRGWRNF

COc1cc2ncnc(Nc3ccc(F)c(Cl)c3)c2cc1NC(=O)/C=C/CN1CCCCC1 [DACOMITINIB ANHYDROUS]
Kd (TGF-beta receptor type-1): > 30 µM (inactive)
Kd [1]: > 30 µM (inactive)
Kd [2]: > 30 µM (inactive)
Kd [3]: > 30 µM (inactive)
Kd [4]: > 30 µM (inactive)
Kd [5]: > 30 µM (inactive)
Kd [6]: > 30 µM (inactive)

CC[C@@](C)(Nc1ccnc(-c2c[nH]c3ncccc23)n1)C(=O)NCC(F)(F)F [DECERNOTINIB]
Kd (TGF-beta receptor type-1): > 30 µM (inactive)
Kd [1]: > 30 µM (inactive)
Kd [2]: > 30 µM (inactive)
Kd [3]: 0.046 µM
Kd [4]: > 30 µM (inactive)
Kd [5]: > 30 µM (inactive)
Kd [6]: > 30 µM (inactive)

CNC(=O)c1ccc(Nc2ncc(C(F)(F)F)c(NCc3nccnc3N(C)S(C)(=O)=O)n2)cc1 [DEFACTINIB]
Kd (TGF-beta receptor type-1): > 30 µM (inactive)
Kd [1]: > 30 µM (inactive)
Kd [2]: > 30 µM (inactive)
Kd [3]: 11.3 µM (active)
Kd [4]: > 30 µM (inactive)
Kd [5]: > 30 µM (inactive)
Kd [6]: > 30 µM (inactive)

COc1cc(Nc2ncc(F)c(Nc3ccc4c(n3)N(COP(=O)(O)O)C(=O)C(C)(C)O4)n2)cc(OC)c1OC [FOSTAMATINIB]
Kd (TGF-beta receptor type-1): > 30 µM (inactive)
Kd [1]: > 30 µM (inactive)
Kd [2]: > 30 µM (inactive)
Kd [3]: 0.16 µM (active)
Kd [4]: > 30 µM (inactive)
Kd [5]: > 30 µM (inactive)
Kd [6]: > 30 µM (inactive)

CCc1nc(C(N)=O)c(Nc2ccc(N3CCC(N4CCN(C)CC4)CC3)c(OC)c2)nc1NC1CCOCC1 [GILTERITINIB]
Kd (TGF-beta receptor type-1): > 30 µM (inactive)
Kd [1]: > 30 µM (inactive)
Kd [2]: > 30 µM (inactive)
Kd [3]: 0.039 µM (active)
Kd [4]: > 30 µM (inactive)
Kd [5]: > 30 µM (inactive)
Kd [6]: > 30 µM (inactive)

Cc1c(Cn2c(C)nc3c(C(=O)O)cc(N4CCOCC4)cc32)cccc1C(F)(F)F [GSK-2636771]
Kd (TGF-beta receptor type-1): > 30 µM (inactive)
Kd [1]: > 30 µM (inactive)
Kd [2]: > 30 µM (inactive)
Kd [3]: > 30 µM (inactive)
Kd [4]: > 30 µM (inactive)
Kd [5]: > 30 µM (inactive)
Kd [6]: > 30 µM (inactive)

C#Cc1cccc(Nc2ncnc3cc4c(cc23)OCCOCCOCCO4)c1 [ICOTINIB]
Kd (TGF-beta receptor type-1): > 30 µM (inactive)
Kd [1]: > 30 µM (inactive)
Kd [2]: > 30 µM (inactive)
Kd [3]: > 30 µM (inactive)
Kd [4]: > 30 µM (inactive)
Kd [5]: > 30 µM (inactive)
Kd [6]: > 30 µM (inactive)

COc1cc2ncnc3c2cc1OCCCCCN(C)Cc1ccc(Br)cc1N3 [JNJ-26483327]
Kd (TGF-beta receptor type-1): > 30 µM (inactive)
Kd [1]: > 30 µM (inactive)
Kd [2]: > 30 µM (inactive)
Kd [3]: > 30 µM (inactive)
Kd [4]: > 30 µM (inactive)
Kd [5]: > 30 µM (inactive)
Kd [6]: > 30 µM (inactive)

Cc1ccc(C(=O)Nc2ccc(Oc3cc4cnn(C)c4cc3-c3cn[nH]c3)c(F)c2)c(=O)n1-c1ccc(F)cc1 [MERESTINIB]
Kd (TGF-beta receptor type-1): > 30 µM (inactive)
Kd [1]: > 30 µM (inactive)
Kd [2]: > 30 µM (inactive)
Kd [3]: > 30 µM (inactive)
Kd [4]: > 30 µM (inactive)
Kd [5]: > 30 µM (inactive)
Kd [6]: > 30 µM (inactive)
